How the values were obtained:
[1] = test system: Hepatotoxicity;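 as to HepSE bilirubinemia: bilirubinemia hepatic side effect score drawn from the DILIps training data, a prediction system for drug-induced liver injury; call rule not given here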;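 as to HepSE cholecystitis: Cholecystitis-related hepatic side effect score drawn from the DILIps (drug-induced liver injury prediction) training data set; call rule not given here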;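 as to HepSE cholelithiasis: hepatic side effect score for cholelithiasis, drawn from the DILIps training data for predicting drug-induced liver injury; call rule not given here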;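 as to HepSE cirrhosis: cirrhosis hepatic side effect score taken from the DILIps (drug-induced liver injury prediction) training set; call rule not given here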;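 as to HepSE elevated liver function tests: hepatic side effect score for raised liver function tests, as recorded in the DILIps training set used for predicting drug-induced liver injury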; as to HepSE hepatic failure: call rule not given here;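 as to HepSE hepatomegaly: hepatic side effect score for hepatomegaly, taken from the training set of the DILIps drug-induced liver injury prediction system; call rule not given here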
[2] = test system: Hepatotoxicity; remark: listed apart in the source;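 as to HepSE bilirubinemia: bilirubinemia hepatic side effect score drawn from the DILIps training data, a prediction system for drug-induced liver injury; call rule not given here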;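 as to HepSE cholecystitis: Cholecystitis-related hepatic side effect score drawn from the DILIps (drug-induced liver injury prediction) training data set; call rule not given here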;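 as to HepSE cholelithiasis: hepatic side effect score for cholelithiasis, drawn from the DILIps training data for predicting drug-induced liver injury; call rule not given here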;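 as to HepSE cirrhosis: cirrhosis hepatic side effect score taken from the DILIps (drug-induced liver injury prediction) training set; call rule not given here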;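 as to HepSE elevated liver function tests: hepatic side effect score for raised liver function tests, as recorded in the DILIps training set used for predicting drug-induced liver injury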; as to HepSE hepatic failure: call rule not given here
[3] = test system: Hepatotoxicity; remark: listed apart in the source;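 as to HepSE bilirubinemia: bilirubinemia hepatic side effect score drawn from the DILIps training data, a prediction system for drug-induced liver injury; call rule not given here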;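 as to HepSE cholecystitis: Cholecystitis-related hepatic side effect score drawn from the DILIps (drug-induced liver injury prediction) training data set; call rule not given here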;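 as to HepSE cholelithiasis: hepatic side effect score for cholelithiasis, drawn from the DILIps training data for predicting drug-induced liver injury; call rule not given here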;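 as to HepSE cirrhosis: cirrhosis hepatic side effect score taken from the DILIps (drug-induced liver injury prediction) training set; call rule not given here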;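 as to HepSE elevated liver function tests: hepatic side effect score for raised liver function tests, as recorded in the DILIps training set used for predicting drug-induced liver injury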; as to HepSE hepatic failure: call rule not given here
[4] = test system: Hepatotoxicity; remark: listed apart in the source;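 as to HepSE bilirubinemia: bilirubinemia hepatic side effect score drawn from the DILIps training data, a prediction system for drug-induced liver injury; call rule not given here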;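 as to HepSE cholecystitis: Cholecystitis-related hepatic side effect score drawn from the DILIps (drug-induced liver injury prediction) training data set; call rule not given here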;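 as to HepSE cholelithiasis: hepatic side effect score for cholelithiasis, drawn from the DILIps training data for predicting drug-induced liver injury; call rule not given here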;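 as to HepSE cirrhosis: cirrhosis hepatic side effect score taken from the DILIps (drug-induced liver injury prediction) training set; call rule not given here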;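 as to HepSE elevated liver function tests: hepatic side effect score for raised liver function tests, as recorded in the DILIps training set used for predicting drug-induced liver injury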; as to HepSE hepatic failure: call rule not given here
[5] = test system: Hepatotoxicity; remark: listed apart in the source; as to HepSE hepatic failure: call rule not given here
[6] = test system: Hepatotoxicity; remark: listed apart in the source; as to HepSE hepatic failure: call rule not given here
[7] = test system: Hepatotoxicity; remark: listed apart in the source
[8] = test system: Hepatotoxicity; remark: listed apart in the source
[9] = test system: Hepatotoxicity; remark: listed apart in the source
[10] = test system: Hepatotoxicity; remark: listed apart in the source
[11] = test system: Hepatotoxicity; remark: listed apart in the source
[12] = test system: Hepatotoxicity; remark: listed apart in the source
[13] = test system: Hepatotoxicity; remark: listed apart in the source
[14] = test system: Hepatotoxicity; remark: listed apart in the source
[15] = test system: Hepatotoxicity; remark: listed apart in the source
[16] = test system: Hepatotoxicity; remark: listed apart in the source

CO[C@@H]1O[C@H](CO)[C@H](O)[C@H](O[C@@H]2O[C@@H](C(=O)O)[C@@H](OC)[C@H](O)[C@H]2O)[C@H]1NC(C)=O
DILI positive/negative [1]: 1

O=C(O)COc1ccc(C(=O)c2cccs2)c(Cl)c1Cl
DILI positive/negative [1]: 1
DILI positive/negative [2]: 1

CCO[C@@H]1OC(=O)C[C@@H]1NC(=O)[C@@H]1CCCN2C(=O)CC[C@H](NC(=O)c3nccc4ccccc34)C(=O)N12
DILI positive/negative [1]: 1

CC(N)C(=O)OC(C)(C)Cc1ccc(Cl)cc1 (stereo not drawn) [ALAPROCLATE]
DILI positive/negative [1]: 1

C[C@H](N)C(=O)N[C@@H](C)C(=O)N[C@H]1[C@@H]2CN(c3nc4c(cc3F)c(=O)c(C(=O)O)cn4-c3ccc(F)cc3F)C[C@@H]21 [ALATROFLOXACIN]
DILI positive/negative [1]: 1

C=CCOc1ccc(CC(=O)O)cc1Cl [ALCLOFENAC]
DILI positive/negative ([1]; Liver): 1

CCCN(CCC)C(=O)Cc1c(-c2ccc(Cl)cc2)nc2ccc(Cl)cn12 [ALPIDEM]
DILI positive/negative [1]: 1
DILI positive/negative [2]: 1

O=C(O)CCCCCCNC1c2ccccc2CCc2ccccc21 [AMINEPTINE]
DILI positive/negative [1]: 1

CCCCN1C(=O)[C@@H]([C@H](O)C2CCCCC2)NC(=O)C12CCN(Cc1ccc(Oc3ccc(C(=O)O)cc3)cc1)CC2 [APLAVIROC]
DILI positive/negative [1]: 1

O=C(O)COc1nn(Cc2ccccc2)c2ccccc12 [BENDAZAC]
DILI positive/negative ([1]; Liver): 1

CC(C(=O)O)c1ccc2oc(-c3ccc(Cl)cc3)nc2c1 (stereo not drawn) [BENOXAPROFEN]
DILI positive/negative [1]: 1
DILI positive/negative [2]: 1

CCc1oc2ccccc2c1C(=O)c1ccc(O)cc1 [BENZARONE]
DILI positive/negative [1]: 1

CCc1oc2ccccc2c1C(=O)c1cc(Br)c(O)c(Br)c1 [BENZBROMARONE]
DILI positive/negative [1]: 1
DILI positive/negative [2]: 1

CCc1oc2ccccc2c1C(=O)c1cc(I)c(O)c(I)c1 [BENZIODARONE]
DILI positive/negative [1]: 1

CCCCNc1ccc(C(=O)OCCOCCOCCOCCOCCOCCOCCOCCOCCOC)cc1 [BENZONATATE]
DILI positive/negative [1]: 0

C[C@@H](Cc1ccccc1)N(C)Cc1ccccc1 [BENZPHETAMINE]
DILI positive/negative [1]: 0

Nc1c(CC(=O)O)cccc1C(=O)c1ccc(Br)cc1 [BROMFENAC]
DILI positive/negative [1]: 1
DILI positive/negative [2]: 1

CN1C(=O)CCS(=O)(=O)C1c1ccc(Cl)cc1 (stereo not drawn) [CHLORMEZANONE]
DILI positive/negative [1]: 1

O=C(O)c1cc(-c2ccccc2)nc2ccccc12 [CINCHOPHEN]
DILI positive/negative [1]: 1
DILI positive/negative [2]: 1

Nc1nc(Cl)nc2c1ncn2[C@H]1C[C@H](O)[C@@H](CO)O1 [CLADRIBINE]
HepSE_bilirubinemia [3]: 0
HepSE_cholecystitis [4]: 0
HepSE_cholelithiasis [5]: 0
HepSE_cirrhosis [6]: 0
HepSE_elevated liver function tests [7]: 0
HepSE_hepatic failure [8]: 0
HepSE_hepatic necrosis [9]: 0
HepSE_hepatitis [10]: 0
HepSE_hepatomegaly [11]: 0
HepSE_jaundice [12]: 0
HepSE_liver disease [13]: 0
HepSE_liver fatty [14]: 0
HepSE_liver function tests abnormal [15]: 0
HepSE_Combined Scores [16]: 0
DILI positive/negative [2]: 0

CN(C)CCCC1c2ccccc2Nc2ccc(Cl)cc21 (stereo not drawn) [CLOMACRAN]
DILI positive/negative [1]: 1

COc1ccc2c(C(=O)c3ccc(Cl)cc3)c(C)n(CC(=O)O)c2c1 [CLOMETACIN]
DILI positive/negative [1]: 1

CCN(CC)CCOc1ccc(C(=C(Cl)c2ccccc2)c2ccccc2)cc1 [CLOMIPHENE]
HepSE_bilirubinemia [3]: 0
HepSE_cholecystitis [4]: 0
HepSE_cholelithiasis [5]: 0
HepSE_cirrhosis [6]: 0
HepSE_elevated liver function tests [7]: 0
HepSE_hepatic failure [8]: 0
HepSE_hepatic necrosis [9]: 0
HepSE_hepatitis [10]: 1
HepSE_hepatomegaly [11]: 0
HepSE_jaundice [12]: 0
HepSE_liver disease [13]: 0
HepSE_liver fatty [14]: 0
HepSE_liver function tests abnormal [15]: 0
HepSE_Combined Scores [16]: 1
DILI positive/negative [2]: 1

CC(=O)Oc1ccc(C(=C2CCCCC2)c2ccc(OC(C)=O)cc2)cc1 [CYCLOFENIL]
DILI positive/negative [1]: 1

CN1c2c(oc(=O)n(-c3ccccn3)c2=O)-c2ccccc2S1(=O)=O [DROXICAM]
DILI positive/negative [1]: 1

NC(N)=Nc1nc(CSCCN/C=N/S(=O)(=O)c2ccc(Br)cc2)cs1 [EBROTIDINE]
DILI positive/negative [1]: 1

CC[N+](C)(C)c1cccc(O)c1.[Br-] [EDROPHONIUM BROMIDE]
DILI positive/negative [1]: 0

CC1=NN(c2ccc(C)c(C)c2)C(=O)/C1=N\Nc1cccc(-c2cccc(C(=O)O)c2)c1O [ELTROMBOPAG]
DILI positive/negative ([1]; Liver): 1

O=C(c1cc(O)c(O)c(O)c1)c1ccc(O)c(O)c1O [EXIFONE]
DILI positive/negative [1]: 1

CN1CCC(Nc2ncc3ncnc(Nc4ccc(F)c(Cl)c4)c3n2)CC1 [FALNIDAMOL]
DILI positive/negative ([1]; Liver): 1

O=C(O)Cc1csc(-c2ccc(Cl)cc2)n1 [FENCLOZIC ACID]
DILI positive/negative [1]: 1

COc1cccc2c1[C@@H]1CN(CCCCn3c(=O)[nH]c4c(sc5ncc(-c6ccccc6)nc54)c3=O)C[C@@H]1CO2 [FIDUXOSIN]
DILI positive/negative [1]: 1

O=C(COc1ccc(Cl)cc1)N1CCN(Cc2ccc3c(c2)OCO3)CC1 [FIPEXIDE]
DILI positive/negative [1]: 1
DILI positive/negative [2]: 1

O=C(OCC(O)CO)c1ccccc1Nc1ccnc2cc(Cl)ccc12 (stereo not drawn) [GLAFENINE]
DILI positive/negative ([1]; Liver): 1
DILI positive/negative ([2]; Liver): 1

CC(C)Cc1ccc(CC(=O)O)cc1 [IBUFENAC]
DILI positive/negative [1]: 1
DILI positive/negative [2]: 1

CC(C)Nc1ncccn1 [ISAXONINE]
DILI positive/negative [1]: 1

CS(=O)(=O)CCNCc1ccc(-c2ccc3ncnc(Nc4ccc(OCc5cccc(F)c5)c(Cl)c4)c3c2)o1 [LAPATINIB]
DILI positive/negative [1]: 1

Cc1ccc(Nc2c(F)cccc2Cl)c(CC(=O)O)c1 [LUMIRACOXIB]
DILI positive/negative [1]: 1

Cc1nnc(C(C)C)n1[C@@H]1C[C@H]2CC[C@@H](C1)N2CC[C@H](NC(=O)C1CCC(F)(F)CC1)c1ccccc1 [MARAVIROC]
DILI positive/negative [1]: 1

CC(NN)c1ccccc1 (stereo not drawn) [MEBANAZINE]
DILI positive/negative [1]: 1

CN1CCCC(CN2c3ccccc3Sc3ccccc32)C1 (stereo not drawn) [MEPAZINE]
DILI positive/negative [1]: 1

NCCO [MONOETHANOLAMINE]
DILI positive/negative [1]: 0

O=C(CCNNC(=O)c1ccncc1)NCc1ccccc1 [NIALAMIDE]
DILI positive/negative [1]: 1

CN(C)Cc1ccc(CSCCN/C(=C\[N+](=O)[O-])NCc2ccc3c(c2)OCO3)o1 [NIPEROTIDINE]
DILI positive/negative ([1]; Liver): 1

Cc1nc([N+](=O)[O-])cn1-c1ccc([N+](=O)[O-])cc1 [NITREFAZOLE]
DILI positive/negative [1]: 1

O=C1Nc2ccccc2C1(c1ccc(O)cc1)c1ccc(O)cc1 [OXYPHENISATINE]
DILI positive/negative [1]: 1

CONC(=N)c1ccc(-c2ccc(-c3ccc(C(=N)NOC)cc3)o2)cc1 [PAFURAMIDINE]
DILI positive/negative [1]: 1

C[C@H]1[C@H](c2ccccc2)OCCN1C [PHENDIMETRAZINE]
DILI positive/negative [1]: 0

CC(COc1ccccc1)NN (stereo not drawn) [PHENOXYPROPAZINE]
DILI positive/negative [1]: 1

NC(=O)C1CCN(CCCN2c3ccccc3Sc3ccc(Cl)cc32)CC1 [PIPAMAZINE]
DILI positive/negative [1]: 1

NC(=O)NS(=O)(=O)c1ccc(N)cc1 [SULFACARBAMIDE]
DILI positive/negative [1]: 1

Nc1ccc(S(=O)(=O)Nc2nccs2)cc1 [SULFATHIAZOLE]
DILI positive/negative ([1]; Liver): 1

CCCCCCCCNC(C)C(O)c1ccc(SC(C)C)cc1 (stereo not drawn) [SULOCTIDIL]
DILI positive/negative [1]: 1

CCC1(c2ccccc2)C(=O)NC(=O)NC1=O.CCCCCOC(CN1C(=O)N(CC(COCCCC)OC(N)=O)C(=O)C(CC)(c2ccccc2)C1=O)OC(N)=O.CCCCOCC(CN1C(=O)NC(=O)C(CC)(c2ccccc2)C1=O)OC(N)=O (stereo not drawn) [TETRABAMATE]
DILI positive/negative [1]: 1

Cc1cc(Br)c(O)c2ncccc12 [TILBROQUINOL]
DILI positive/negative [1]: 1

COc1ccc2c(C(=S)N(C)CC(=O)O)cccc2c1C(F)(F)F [TOLRESTAT]
DILI positive/negative [1]: 1

CC(=O)Oc1ccc(C2(c3ccc(OC(C)=O)cc3)C(=O)N(C(C)=O)c3ccccc32)cc1 [TRIACETYLDIPHENOLISATIN]
DILI positive/negative [1]: 1

CO[C@H]1C[C@H](O[C@H]2[C@H](C)[C@@H](O[C@@H]3O[C@H](C)C[C@H](N(C)C)[C@H]3OC(C)=O)[C@@H](C)C[C@@]3(CO3)C(=O)[C@H](C)[C@@H](OC(C)=O)[C@@H](C)[C@@H](C)OC(=O)[C@@H]2C)O[C@@H](C)[C@@H]1OC(C)=O [TROLEANDOMYCIN]
DILI positive/negative [2]: 1

Oc1ncc(N(CCCl)CCCl)c(O)n1 [URACIL MUSTARD]
DILI positive/negative ([2]; Liver): 1

Nc1ncnc2c1ncn2[C@@H]1O[C@H](CO)[C@@H](O)[C@@H]1O [VIDARABINE]
DILI positive/negative [2]: 0

CC[C@]1(O)C[C@@H]2CN(CCc3c([nH]c4ccccc34)[C@@](C(=O)OC)(c3cc4c(cc3OC)N(C)[C@H]3[C@@](O)(C(=O)OC)[C@H](OC(C)=O)[C@]5(CC)C=CCN6CC[C@]43[C@@H]65)C2)C1.O=S(=O)(O)O [VINBLASTINE SULFATE]
DILI positive/negative [2]: 0

CCOC(Nc1ccc(C(=O)O)cc1)C(=O)c1ccc(-c2ccccc2)cc1 (stereo not drawn) [XENAZOIC ACID]
DILI positive/negative [1]: 1

CCOC(=O)CN[C@@H](C(=O)N1CC[C@H]1C(=O)NCc1ccc(/C(N)=N\O)cc1)C1CCCCC1 [XIMELAGATRAN]
DILI positive/negative [1]: 1

CN(C)C/C=C(/c1ccc(Br)cc1)c1cccnc1 [ZIMELDINE]
DILI positive/negative [1]: 1

Cc1cc(CC(=O)O)n(C)c1C(=O)c1ccc(Cl)cc1 [ZOMEPIRAC]
DILI positive/negative [2]: 0

AUROTHIOGLUCOSE
DILI positive/negative [2]: 1

BISMUTH SUBSALICYLATE
DILI positive/negative [2]: 0

COLISTIMETHATE
DILI positive/negative [1]: 0

FERROUS SULFATE
DILI positive/negative [2]: 0

GALLIUM NITRATE HYDRATE
DILI positive/negative [2]: 0

LACTOSE, ANHYDROUS
DILI positive/negative [2]: 0
